Measured values from article PMC9007350, “Aurintricarboxylic acid is a canonical disruptor of the TAZ-TEAD transcriptional complex” (PLoS ONE, 2022).
pIC50: −log10 of the molar value. Read-outs that look alike come from different tables or passages of the source.

Tests used:
[1] = target: T1, YAP-TEAD complex (human YAP (61-100) probe, human TEAD4 (217-434)) (Homo sapiens, UniProt Q15561); test: YAP-TEAD fluorescence polarization assay; format: binding; conditions: TEAD4 350 nM, YAP probe 25 nM; read-out: IC50, YAP-TEAD FP assay
T1 construct: made in house
T1 sequence (Q15561 217-434, one chain of several): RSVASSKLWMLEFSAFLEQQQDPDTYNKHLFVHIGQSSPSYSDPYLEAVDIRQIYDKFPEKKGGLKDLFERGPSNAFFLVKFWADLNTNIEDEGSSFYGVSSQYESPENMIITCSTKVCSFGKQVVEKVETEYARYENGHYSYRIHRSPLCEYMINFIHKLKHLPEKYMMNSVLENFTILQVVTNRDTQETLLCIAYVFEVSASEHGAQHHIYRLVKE
Experimental: (§1) Human YAP (61–100), human TAZ (23–57) and mouse Vgll1 (26–51) peptide probes were used; all the probes had carboxyfluorescein labels. Human TEAD4 (217–434) was used in the assay at a concentration of 350 nM and the peptide probe concentration was 25 nM. Disruptors were titrated at concentrations ranging from 0–150 μM to the probe-TEAD complex, and the mixtures were incubated at 25°C for 20 min. Then, polarization measurements were taken using a Victor3 (PerkinElmer) plate reader.

[2] = system: TC/TEAD transcriptional activity in HEK293 cells expressing TAZ-CAMTA1; test: TC/TEAD dual luciferase reporter assay; format: cell-based; conditions: ATA 10 μM, 48 h
Experimental: NIH3T3 and HEK293 cells were obtained from the American Type Tissue Collection (ATCC, Manassas, VA) and cultured in DMEM containing 10% fetal bovine serum and penicillin/streptomycin. A TEAD dual luciferase reporter assay was performed as previously described. Cells were treated with vehicle control or ATA (10 μM) for 48 h before measuring the luciferase activity or processing the samples for RNA extraction. Each experiment was repeated at least 2–3 times.

NIH3T3 cells = test: LDH cytotoxicity assay, NIH3T3; format: cell-based; conditions: NIH3T3, concentrations used in soft agar assay
Experimental: (§2) Soft agar colony growth assay was performed as previously described. The colonies were counted using Image-Pro Plus 7.0 software (Media Cybernetics). ATA cytotoxicity was assessed using the CyQUANT LDH Cytotoxicity Assay Kit (ThermoFisher) and was performed as per the manufacturer’s protocol.
(§3) NIH3T3 and HEK293 cells were treated with the indicated concentrations of ATA and the cytotoxicity was evaluated by calculating the amount of intracellular LDH released into the media. LDH absorbance after complete cell lysis is considered as 100% cytotoxicity and the absorbance after ATA treatment was normalized accordingly. (TIF) Click here for additional data file.

[3] = system: NIH3T3 expressing TAZ S89A; test: Soft agar colony growth assay, TAZ S89A; format: cell-based
Experimental: as §2

[4] = target: T2, VGLL1-TEAD complex (mouse Vgll1 (26-51) probe, human TEAD4 (217-434)) (Homo sapiens, UniProt Q15561); test: Vgll1-TEAD fluorescence polarization assay; format: binding; conditions: TEAD4 350 nM, Vgll1 probe 25 nM
T2 construct: made in house
T2 sequence (Q15561 217-434, one chain of several): as above
Experimental: as §1

[5] = system: CYR61, CTGF, AMOTL2 and ANKRD1 transcripts in TC-expressing NIH3T3 cells; test: qPCR of canonical TAZ target genes; format: cell-based, murine; conditions: ATA 10 μM, 48 h
Experimental: NIH3T3 and HEK293 cells were obtained from the American Type Tissue Collection (ATCC, Manassas, VA) and cultured in DMEM containing 10% fetal bovine serum and penicillin/streptomycin. A TEAD dual luciferase reporter assay was performed as previously described. Cells were treated with vehicle control or ATA (10 μM) for 48 h before measuring the luciferase activity or processing the samples for RNA extraction. Each experiment was repeated at least 2-3 times. NIH3T3 cells were used. The extracted RNA (RNeasy Mini, Qiagen) from treated cells was either used for qPCR measurements or sent for bulk RNA-Seq. Sequencing runs were performed on an Illumina HiSeq 4000 sequencer (Genewiz). […] Paired end reads were aligned to the murine genome ([…]2 [27]. Raw count files were generated with featureCounts using a corresponding GTF reference. Differential gene expression analysis was performed with DESeq2 [29]. Transcripts were considered to be differentially expressed if the false discovery rate < 0.05 and Log2FC > 2. When performing differential gene expression for GSEA analysis, the Limma package was used (<5 CPM filtering) with t-scores used for rank statistics. GSEA plots and statistics were generated with FGSEA with custom gene sets. Raw sequencing reads and processed files have been deposited in the GEO repository (data will be uploaded upon manuscript acceptance). […]

[6] = target: T3, TAZ-TEAD complex (human TAZ (23-57) probe, human TEAD4 (217-434)) (Homo sapiens, UniProt Q15561); test: TAZ-TEAD fluorescence polarization assay; format: binding; conditions: TEAD4 350 nM, probe 25 nM
T3 construct: made in house
T3 sequence (Q15561 217-434, one chain of several): as above
Experimental: as §1

TAZ = target: T4, TAZ (Homo sapiens, UniProt Q9GZV5); test: ThermoFluor assay, TAZ; format: binding; conditions: full-length TAZ, protein 5 μM
T4 construct: ThermoFluor assays measuring the melting temperatures (Tm) of full-length TAZ or TEAD in the presence of ATA; strep (C); made in house; host or cells: Escherichia coli BL21(DE3)pLysS
T4 sequence (Q9GZV5 whole entry): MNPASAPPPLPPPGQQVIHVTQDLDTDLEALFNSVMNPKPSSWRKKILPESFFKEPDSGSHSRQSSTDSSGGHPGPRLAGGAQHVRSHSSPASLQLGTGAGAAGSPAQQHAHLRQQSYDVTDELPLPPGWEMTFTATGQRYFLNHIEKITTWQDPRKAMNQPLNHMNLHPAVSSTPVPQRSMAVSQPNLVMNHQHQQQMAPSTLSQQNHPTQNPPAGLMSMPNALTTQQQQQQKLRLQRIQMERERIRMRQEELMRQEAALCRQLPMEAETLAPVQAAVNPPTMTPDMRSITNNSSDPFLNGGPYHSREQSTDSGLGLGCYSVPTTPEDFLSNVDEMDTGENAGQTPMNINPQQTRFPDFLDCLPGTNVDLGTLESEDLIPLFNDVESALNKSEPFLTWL
Experimental: (§4) To assess changes in protein stability, a dye-based thermal melting assay (ThermoFluor) was used. Purified protein (TAZ or TEAD4), ATA, and Protein Thermal Shift dye (ThermoFisher) were mixed in 96-well plates. The final concentration of the protein was 5 μM. The melting temperature was measured using LightCycler 480 (Roche). Each experiment was repeated at least twice.

HEK293 cells = test: LDH cytotoxicity assay, HEK293; format: cell-based; conditions: HEK293, concentrations used
Experimental: as §2, §3

TEAD4 = target: T5, TEAD4 (Homo sapiens, UniProt Q15561); test: ThermoFluor assay, TEAD; format: binding; conditions: protein 5 μM
T5 construct: ThermoFluor assays measuring the melting temperatures (Tm) of full-length TAZ or TEAD in the presence of ATA; strep (N, cleaved yes); made in house; host or cells: Escherichia coli BL21(DE3)pLysS
T5 sequence (Q15561 whole entry): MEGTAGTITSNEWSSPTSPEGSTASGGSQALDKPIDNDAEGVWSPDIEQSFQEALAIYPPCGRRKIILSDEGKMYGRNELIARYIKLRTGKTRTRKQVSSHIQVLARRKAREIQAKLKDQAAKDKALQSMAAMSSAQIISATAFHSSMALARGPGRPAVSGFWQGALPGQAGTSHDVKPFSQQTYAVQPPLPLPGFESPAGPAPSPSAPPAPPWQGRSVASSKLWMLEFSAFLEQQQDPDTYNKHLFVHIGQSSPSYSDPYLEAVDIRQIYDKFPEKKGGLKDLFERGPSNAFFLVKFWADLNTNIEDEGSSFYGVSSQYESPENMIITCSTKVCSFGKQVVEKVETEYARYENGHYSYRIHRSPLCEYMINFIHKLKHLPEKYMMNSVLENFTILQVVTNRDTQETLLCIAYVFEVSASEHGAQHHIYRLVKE
Experimental: as §4

O=C(O)C1=CC(=C(c2ccc(O)c(C(=O)O)c2)c2ccc(O)c(C(=O)O)c2)C=CC1=O [ATA, aurintricarboxylic acid]
pIC50 [1]: 3.80
TC-dependent increase of TEAD luciferase reporter activity [2]: significantly reduced
cytotoxicity, LDH release (NIH3T3 cells): did not show cytotoxicity
soft agar growth driven by TAZ S89A [3]: inhibited soft agar growth
disruption of the VGLL1-TEAD interaction (in words) [4]: ineffective
transcripts of canonical TAZ target genes (CYR61, CTGF, AMOTL2, ANKRD1) by qPCR [5]: suppression of these transcripts
pIC50 ([6]; acylated TEAD, read-out: IC50, TAZ-TEAD FP assay, acylated TEAD): 4.17
pIC50 ([6]; deacylated TEAD, read-out: IC50, TAZ-TEAD FP assay, deacylated TEAD): 4.14
melting temperature (Tm) of TAZ + ATA (TAZ): 53.1 °C
cytotoxicity, LDH release (HEK293 cells): did not show cytotoxicity
shift in Tm in the ThermoFluor assay (in words) (TEAD4; TAZ or TEAD): increased the Tm
melting temperature (Tm) of TEAD + ATA (TEAD4; full-length TEAD): 54.8 °C
